How the values were obtained:
[1] = In vitro cytotoxicity assay (MTT cell viability) in HepG2 cells; type: cell-based, human; settings: human
Outline: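 Using MTT conversion as the viability measure, HepG2 cells were incubated with compounds for 7 days (30 μM to 1.0 nM). Absorbance at 492 nm was normalized to vehicle and fitted to give CC50.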

[2] = tested on: HBV replication in HepAD38 cells; assay: Anti-HBV replication assay in HepAD38 cells (QPCR of extracellular HBV DNA); type: cell-based, HBV (genotype D, serotype ayw); settings: Hepatitis B virus, 168 h, 7 days incubation, extracellular HBV DNA by QPCR, read-out: Anti-HBV EC50
Outline: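 Stably transfected HepG2-derived HepAD38 cells express HBV (genotype D, ayw) once tetracycline is withdrawn. Compounds act for 7 days, after which secreted HBV DNA is quantified by QPCR relative to DMSO-treated wells.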

SMILES	CC50 at 7 days [1]	EC50 [2]
Cc1cc(NC(=O)c2c(C)c(C(=O)C(=O)NC3(C(=O)NC(C)C)CCOCC3)n(C)c2C)ccc1F [Example 303, N-(4-fluoro-3-methylphenyl)-5-(2-((4-(isopropylcarbamoyl)tetrahydro-2H-pyran-4-yl)amino)-2-oxoacetyl)-1,2,4-trimethyl-1H-pyrrole-3-carboxamide]	> 30000 nM	< 50 nM
Cc1cc(NC(=O)c2cc(C(=O)C(=O)NC3(C(F)(F)F)CCC3)n3c2CCCC3)ccc1F [Example 403]	> 30000 nM	50 to 499 nM
COc1c(C(=O)Nc2ccc(F)c(F)c2)c(C)n(C)c1C(=O)C(=O)N[C@@H]1CCC[C@@H]1O [Example 384]	> 30000 nM	> 1000 nM
Cc1c(C(=O)Nc2ccc(F)nc2)c(C)n(C)c1C(=O)C(=O)NC1C2CC3CC(C2)CC1C3 (centres unmarked) [Example 91, 5-(2-(((1r,3r)-adamantan-2-yl)amino)-2-oxoacetyl)-N-(6-fluoropyridin-3-yl)-1,2,4-trimethyl-1H-pyrrole-3-carboxamide]	> 30000 nM	< 50 nM
CC(C)(C)NC(=O)C(=O)c1cc(C(=O)Nc2ccc(F)c(Cl)c2)c2n1CCC2 [Example 535, 5-(2-(tert-butylamino)-2-oxoacetyl)-N-(3-chloro-4-fluorophenyl)-2,3-dihydro-1H-pyrrolizine-7-carboxamide]	500 to 4990 nM	< 50 nM
Cc1cc(NC(=O)c2c(C)c(C(=O)C(=O)N[C@@H](C(=O)O)[C@@H](C)O)n(C)c2C)ccc1F [Example 52, (2-(4-((4-fluoro-3-methylphenyl)carbamoyl)-1,3,5-trimethyl-1H-pyrrol-2-yl)-2-oxoacetyl)-D-allothreonine]	> 30000 nM	> 1000 nM
CC(C)(C)NC(=O)C(=O)c1cc(C(=O)Nc2cc(F)c(F)c(F)c2)c2n1CCCC2 [Example 396, 3-(2-(tert-butylamino)-2-oxoacetyl)-N-(3,4,5-trifluorophenyl)-5,6,7,8-tetrahydroindolizine-1-carboxamide]	5000 to 30000 nM	50 to 499 nM
Cn1cc(C(=O)Nc2ccc(F)c(Cl)c2)cc1C(=O)C(=O)NOC(C)(C)C [Example 21, 5-(2-(tert-butoxyamino)-2-oxoacetyl)-N-(3-chloro-4-fluorophenyl)-1-methyl-1H-pyrrole-3-carboxamide]	> 30000 nM	50 to 499 nM
O=C(NC1(CO)CC(F)(F)C1)C(=O)c1c(Cl)c(C(=O)Nc2ccc(F)c(F)c2)c2n1CCCC2 [Example 520, 2-chloro-3-(2-((3,3-difluoro-1-(hydroxymethyl)cyclobutyl)amino)-2-oxoacetyl)-N-(3,4-difluorophenyl)-5,6,7,8-tetrahydroindolizine-1-carboxamide]	> 30000 nM	< 50 nM
Cc1c(C(=O)Nc2cccc(Cl)c2)c(C)n(C)c1C(=O)C(=O)N[C@H]1CC[C@@H](O)CC1 [Example 602, N-(3-chlorophenyl)-5-(2-(((1s,4s)-4-hydroxycyclohexyl)amino)-2-oxoacetyl)-1,2,4-trimethyl-1H-pyrrole-3-carboxamide]	> 30000 nM	< 50 nM
CC(=O)N1CCn2c(C(=O)C(=O)NC(C)(C)C)cc(C(=O)Nc3ccc(F)c(C)c3)c2C1 [Example 590, 2-acetyl-6-(2-(tert-butylamino)-2-oxoacetyl)-N-(4-fluoro-3-methylphenyl)-1,2,3,4-tetrahydropyrrolo[1,2-a]pyrazine-8-carboxamide]	> 30000 nM	500 to 1000 nM
Cc1cc(NC(=O)c2c(C)c(C(=O)C(=O)NC(C)(C)C(=O)N3CCC(O)CC3)n(C)c2C)ccc1F [Example 597, N-(4-fluoro-3-methylphenyl)-5-(2-((1-(4-hydroxypiperidin-1-yl)-2-methyl-1-oxopropan-2-yl)amino)-2-oxoacetyl)-1,2,4-trimethyl-1H-pyrrole-3-carboxamide]	> 30000 nM	< 50 nM
Cc1c(C(=O)Nc2ccc(F)nc2)c(C)n(C)c1C(=O)C(=O)NC(C)(C)CO [Example 120, N-(6-fluoropyridin-3-yl)-5-(2-((1-hydroxy-2-methylpropan-2-yl)amino)-2-oxoacetyl)-1,2,4-trimtehyl-1H-pyrrole-3-carboxamide]	> 30000 nM	500 to 1000 nM
O=C(N[C@H]1CCC[C@H]1O)C(=O)c1c(Cl)c(C(=O)Nc2ccc(F)c(F)c2)c2n1CCCC2 [Example 519, 2-chloro-N-(3,4-difluorophenyl)-3-(2-(((1S,2R)-2-hydroxycyclopentyl)amino)-2-oxoacetyl)-5,6,7,8-tetrahydroindoliznie-1-carboxamide]	5000 to 30000 nM	50 to 499 nM
COC(=O)[C@H](NC(=O)C(=O)c1c(C)c(C(=O)Nc2ccc(F)c(C)c2)c(C)n1C)C(C)(C)C [Example 24, methyl (R)-2-(2-(4-((4-fluoro-3-methylphenyl)carbamoyl)-1,3,5-trimethyl-1H-pyrrol-2-yl)-2-oxoacetamido)-3,3-dimethylbutanoate]	> 30000 nM	< 50 nM
Cc1cc(NC(=O)c2c(C)c(C(=O)C(=O)N[C@H]3CC[C@@H](CO)CC3)n(C)c2C)ccc1F [Example 676, N-(4-fluoro-3-methylphenyl)-5-(2-(((1s,4s)-4-(hydroxymethyl)cyclohexyl)amino)-2-oxoacetyl)-1,2,4-trimethyl-1H-pyrrole-3-carboxamide]	> 30000 nM	< 50 nM
Cc1cc(NC(=O)c2c(C)c(C(=O)C(=O)Nc3cccnc3)n(C)c2C)cnc1F [Example 339, N-(6-fluoro-5-methylpyridin-3-yl)-1,2,4-trimethyl-5-(2-oxo-2-(pyridin-3-ylamino)acetyl)-1H-pyrrole-3-carboxamide]	> 30000 nM	500 to 1000 nM
Cc1cc(NC(=O)c2c(C)c(C(=O)C(=O)NC(C)(C)c3nc(CN(C)C)no3)n3c2CCCC3)ccc1F [Example 437, 3-(2-((2-(3-((dimethylamino)methyl)-1,2,4-oxadiazol-5-yl)propan-2-yl)amino)-2-oxoacetyl)-N-(4-fluoro-3-methylphenyl)-2-methyl-5,6,7,8-tetrahydroindolizine-1-carboxamide]	> 30000 nM	50 to 499 nM
CC(C)(C)NC(=O)C(=O)c1cc(C(=O)Nc2ccc(F)c(Cl)c2)c2n1CCCC2 [Example 399, 3-(2-(tert-butylamino)-2-oxoacetyl)-N-(3-chloro-4-fluorophenyl)-5,6,7,8-tetrahydroindolizine-1-carboxamide]	> 30000 nM	50 to 499 nM
CC(C)(CO)NC(=O)C(=O)c1cc(C(=O)Nc2ccc(F)c(Cl)c2)c2n1CCCC2 [Example 427, N-(3-chloro-4-fluorophenyl)-3-(2-((1-hydroxy-2-methylpropan-2-yl)amino)-2-oxoacetyl)-5,6,7,8-tetrahydroindolizine-1-carboxamide]	> 30000 nM	50 to 499 nM
Cc1cc(NC(=O)c2c(C)c(C(=O)C(=O)NCC(C)(C)C)n(C)c2C)ccc1F [Example 64, N-(4-fluoro-3-methylphenyl)-1,2,4-trimethyl-5-(2-(neopentylamino)-2-oxoacetyl)-1H-pyrrole-3-carboxamide]	5000 to 30000 nM	< 50 nM
Cc1cc(NC(=O)c2c(C)c(C(=O)C(=O)NC3CCC(F)(F)CC3)n(C)c2C)cnc1F [Example 343, 5-(2-((4,4-difluorocyclohexyl)amino)-2-oxoacetyl)-N-(6-fluoro-5-methylpyridin-3-yl)-1,2,4-trimethyl-1H-pyrrole-3-carboxamide]	> 30000 nM	50 to 499 nM

From patent US20190375708A1 (VenatoRx Pharmaceuticals, Inc., priority 2018, published 2019)
